Assay [1] deals with AsPC-1 (G12D). The assay can be described thus: In vitro cell proliferation inhibition test (CellTiter-Glo), AsPC-1. The class given is cell-based. As to conditions: KRAS (p.G12D), 72 h co-incubation. An excerpt:
(§1) Test Example 1: In Vitro Cell Proliferation Inhibition Test
(§2) Due to the diversity of RAS mutations and in order to evaluate the activity of compounds in different RAS mutation cell lines, we selected KRAS^WT, KRAS^G12C, KRAS^G12D, KRAS^G12V and BRAF mutation cell lines (see the table below) for in vitro activity evaluation and screening of compounds.
(§3) Protocol: CellTiter-Glo® Cell Luminescent Viability Assay (Promega)
(§4) According to the doubling time of different cell lines, different numbers of cells (1000-5000 cells/well) were seeded in 96-well plates containing 180 μl of corresponding culture medium and cultured overnight in a cell culture incubator at 37° C. with 5% CO2. On the second day, the test compound was pre-diluted 3-fold with culture medium, with the highest concentration being 100 μM, for a total of 10 concentration gradients; then 20 μl of culture medium containing different concentrations of the compound was added to the cells in the 96-well plate to ensure that the final concentration of the compound was up to 10 μM, with 10 concentration gradients of 3-fold dilution. After the cells and compounds were co-incubated for 72 h, the 96-well plate was removed from the incubator and equilibrated at room temperature for 30 min. Then, 25 μl of CellTiter-Glo® Reagent was added to each well and mixed thoroughly. The mixture was incubated at room temperature for 10 min, and then 100 μl of the sample was transferred to a white 96-well plate (OptiPlate™-96, PerkinElmer). The […] signal value was read using a multi-function microplate reader (SpectraMax® i3x, Molecular devices). The signal values were then standardized, and the curve was fitted using a four-parameter regression equation to calculate the half maximal inhibitory concentration (IC50) of the compound on the cell line.
For orientation: In ATP-based viability assays light output follows the ATP content of the culture.

In assay [2] the test system is SW480 (G12V). Nature of the assay: In vitro cell proliferation inhibition test (CellTiter-Glo), SW480. The class given is cell-based. As to conditions: Homo sapiens, SW480 colon cell line, KRAS (p.G12V), 72 h co-incubation.
From the text: as §1, §2, §3, §4

Where [3] appears, read: Homo sapiens, ASPC1, AsPC-1 pancreas cell line.

A word on the IC50: it is the point on the concentration scale where inhibition reaches its midpoint.

`CCn1c(-c2cc(-c3ccc(CN4CCOCC4)cc3)cnc2[C@H](C)OC)c2c3cc(ccc31)-c1csc(n1)C[C@H](NC(=O)[C@H]1[C@H](C)[C@@H]1C)C(=O)N1CCC[C@H](N1)C(=O)OCC(C)(C)C2` (atropisomer, axis not shown) [Compound 1, (1r,2R,3S)-N-((6^3S,4S,Z)-1^1-ethyl-1^2-(2-((S)-1-methoxyethyl)-5-(4-(morpholinomethyl)phenyl)pyridin-3-yl)-10,10-dimethyl-5,7-dioxo-6^1,6^2,6^3,6^4,6^5,6^6-hexahydro-1^1H-8-oxa-2(4,2)-thiazola-1(5,3)-indola-6(1,3)-pyridazinacycloundecaphane-4-yl)-2,3-dimethylcyclopropane-1-carboxamide]: the IC50 turned out to be 1.1 nM in assay [1] (setting [3]) and 1.3 nM in assay [2]. Turning to `CCn1c(-c2cc(-c3ccc4c(c3)CN(C)C4)cnc2[C@H](C)OC)c2c3cc(ccc31)-c1csc(n1)C[C@H](NC(=O)[C@H]1C[C@@H]1C)C(=O)N1CCC[C@H](N1)C(=O)OCC(C)(C)C2` (atropisomer, axis not shown) [Compound 2, (1S,2S)-N-((6^3S,4S,Z)-1^1-ethyl-1^2-(2-((S)-1-methoxyethyl)-5-(2-methylisoindolin-5-yl)pyridin-3-yl)-10,10-dimethyl-5,7-dioxo-6^1,6^2,6^3,6^4,6^5,6^6-hexahydro-1^1H-8-oxa-2(4,2)-thiazola-1(5,3)-indola-6(1,3)-pyridazinacycloundecaphane-4-yl)-2-methylcyclopropane-1-carboxamide], the IC50 in assay [1] (setting [3]) amounted to 21 nM; in assay [2], 670 nM. Consider `CCn1c(-c2cc(-c3ccc4c(c3)CCN(C)C4)cnc2[C@H](C)OC)c2c3cc(ccc31)-c1csc(n1)C[C@H](NC(=O)[C@H]1[C@H](C)[C@@H]1C)C(=O)N1CCC[C@H](N1)C(=O)OCC(C)(C)C2` (atropisomer, axis not shown) [Compound 3, (1r,2R,3S)-N-((6^3S,4S,Z)-1^1-ethyl-1^2-(2-((S)-1-methoxyethyl)-5-(2-methyl-1,2,3,4-tetrahydroisoquinolin-6-yl)pyridin-3-yl)-10,10-dimethyl-5,7-dioxo-6^1,6^2,6^3,6^4,6^5,6^6-hexahydro-1^1H-8-oxa-2(4,2)-thiazola-1(5,3)-indola-6(1,3)-pyridazinacycloundecaphane-4-yl)-2,3-dimethylcyclopropane-1-carboxamide], for which the figures for the IC50 in assay [1] (setting [3]) and in assay [2] were 0.18 nM and 0.33 nM, respectively. For the molecule `CCn1c(-c2cc(-c3nc(C)no3)cnc2[C@H](C)OC)c2c3cc(ccc31)-c1csc(n1)C[C@H](NC(=O)[C@H]1C[C@@H]1C)C(=O)N1CCC[C@H](N1)C(=O)OCC(C)(C)C2` [Compound 21′, (1S,2S)-N-((6^3S,4S,Z)-1^1-ethyl-1^2-(2-((S)-1-methoxyethyl)-5-(3-methyl-1,2,4-oxadiazol-5-yl)pyridin-3-yl)-10,10-dimethyl-5,7-dioxo-6^1,6^2,6^3,6^4,6^5,6^6-hexahydro-1^1H-8-oxa-2(4,2)-thiazola-1(5,3)-indola-6(1,3)-pyridazinacycloundecaphane-4-yl)-2-methylcyclopropane-1-carboxamide], the IC50 in assay [1] (AsPC-1 pancreas cell line) turned out to be 1770 nM. For `CCn1c(-c2cc(-c3cc(C4CN(C)CCO4)on3)cnc2C(C)OC)c2c3cc(ccc31)-c1csc(n1)CC(NC(=O)C1C(C)C1C)C(=O)N1CCCC(N1)C(=O)OCC(C)(C)C2` [Compound 26′, (1r,2R,3S)-N-((6^3S,4S,Z)-1^1-ethyl-1^2-(2-((S)-1-methoxyethyl)-5-(5-((R)-4-methylmorpholin-2-yl)isoxazol-3-yl)pyridin-3-yl)-10,10-dimethyl-5,7-dioxo-6^1,6^2,6^3,6^4,6^5,6^6-hexahydro-1^1H-8-oxa-2(4,2)-thiazola-1(5,3)-indola-6(1,3)-pyridazinacycloundecaphane-4-yl)-2,3-dimethylcyclopropane-1-carboxamide], the IC50 in assay [1] (AsPC-1 pancreas cell line) is 13 nM. As for `CCn1c(-c2cc(-c3cc(C4COCCN4C)on3)cnc2C(C)OC)c2c3cc(ccc31)-c1csc(n1)CC(NC(=O)C1C(C)C1C)C(=O)N1CCCC(N1)C(=O)OCC(C)(C)C2` [Compound 32′, (1r,2R,3S)-N-((6^3S,4S,Z)-1^1-ethyl-1^2-(2-((S)-1-methoxyethyl)-5-(5-((S)-4-methylmorpholin-3-yl)isoxazol-3-yl)pyridin-3-yl)-10,10-dimethyl-5,7-dioxo-6^1,6^2,6^3,6^4,6^5,6^6-hexahydro-1^1H-8-oxa-2(4,2)-thiazola-1(5,3)-indola-6(1,3)-pyridazinacycloundecaphane-4-yl)-2,3-dimethylcyclopropane-1-carboxamide], in assay [1] (AsPC-1 pancreas cell line), the IC50 worked out at 33 nM. Same read-out and setting: the figure for `CCn1c(-c2cc(-c3cc(C4COCCN4C)on3)cnc2C(C)OC)c2c3cc(ccc31)-c1csc(n1)CC(NC(=O)C1C(C)C1C)C(=O)N1CCCC(N1)C(=O)OCC(C)(C)C2` [Compound 33′, (1r,2R,3S)-N-((6^3S,4S,Z)-1^1-ethyl-1^2-(2-((S)-1-methoxyethyl)-5-(5-((R)-4-methylmorpholin-3-yl)isoxazol-3-yl)pyridin-3-yl)-10,10-dimethyl-5,7-dioxo-6^1,6^2,6^3,6^4,6^5,6^6-hexahydro-1^1H-8-oxa-2(4,2)-thiazola-1(5,3)-indola-6(1,3)-pyridazinacycloundecaphane-4-yl)-2,3-dimethylcyclopropane-1-carboxamide] is 32 nM; for `CCn1c(-c2cc(-c3cc(C4(C)CN(C)C4)on3)cnc2C(C)OC)c2c3cc(ccc31)-c1csc(n1)CC(NC(=O)C1C(C)C1C)C(=O)N1CCCC(N1)C(=O)OCC(C)(C)C2` [Compound 34′, (1r,2R,3S)-N-((6^3S,4S,Z)-1^2-(5-(5-(1,3-dimethylazetidin-3-yl)isoxazol-3-yl)-2-((S)-1-methoxyethyl)pyridin-3-yl)-1^1-ethyl-10,10-dimethyl-5,7-dioxo-6^1,6^2,6^3,6^4,6^5,6^6-hexahydro-1^1H-8-oxa-2(4,2)-thiazola-1(5,3)-indola-6(1,3)-pyridazinacycloundecaphane-4-yl)-2,3-dimethylcyclopropane-1-carboxamide] it is 116 nM. In the case of “(1S,2S)-N-((6^3S,4S,Z)-1^1-ethyl-1^2-(2-((S)-1-methoxyethyl)-5-(1-(2-morpholinoethyl)-1H-pyrazol-4-yl)pyridin-3-yl)-10,10-dimethyl-5,7-dioxo-6^1,6^2,6^3,6^4,6^5,6^6-hexahydro-1^1H-8-oxa-2(4,2)-thiazola-1(5,3)-indola-6(1,3)-pyridazinacycloundecaphane-4-yl)-2-methylcyclopropane-1-carboxamide [Compound 15′]”, in assay [1] (AsPC-1 pancreas cell line), the IC50 was 1020 nM. For “(1S,2S)-N-((6^3S,4S,Z)-1^1-ethyl-1^2-(2-((S)-1-methoxyethyl)-5-(5-(1-methylazetidin-3-yl)isoxazol-3-yl)pyridin-3-yl)-10,10-dimethyl-5,7-dioxo-6^1,6^2,6^3,6^4,6^5,6^6-hexahydro-1^1H-8-oxa-2(4,2)-thiazola-1(5,3)-indola-6(1,3)-pyridazinacycloundecaphane-4-yl)-2-methylcyclopropane-1-carboxamide [Compound 31′]”, the IC50 in assay [1] (AsPC-1 pancreas cell line) was found to be 53 nM.

As to “(1S,2S)-N-((6^3S,4S,Z)-1^1-ethyl-1^2-(2-((S)-1-methoxyethyl)-5-(5-(1-methylpiperidin-4-yl)isoxazol-3-yl)pyridin-3-yl)-10,10-dimethyl-5,7-dioxo-6^1,6^2,6^3,6^4,6^5,6^6-hexahydro-1^1H-8-oxa-2(4,2)-thiazola-1(5,3)-indola-6(1,3)-pyridazinacycloundecaphane-4-yl)-2-methylcyclopropane-1-carboxamide [Compound 30′]”, the IC50 in assay [1] (AsPC-1 pancreas cell line) came to 60 nM.

(Values after patent US20260193271A1, “PAN-KRAS INHIBITOR COMPOUND” (ADLAI NORTYE BIOPHARMA CO., LTD., priority 2022, published 2026).)
